The numbers were not newly measured in US9199980B2, “Compounds” (CHIESI FARMACEUTICI S.p.A., priority 2012, dated 2015), which cites them from elsewhere.

Structures are written as SMILES.

Series [1] deals with COPD patients.
For series [2], the system named is smoking model of COPD in mice.
The mark [3] stands for this setting: patients with severe disease, frequent exacerbations and mucus hypersecretion.

Turning to `O=C(Nc1c(Cl)cncc1Cl)c1ccc(OC(F)F)c(OCC2CC2)c1` [roflumilast], in series [1] (COPD patients, oral, given over 4 weeks), the “reduction of the numbers of neutrophils in sputum” value is reported as 36%. Besides, in series [1] (setting [3]), the “improvement of FEV 1” value was “approximately 50 ml” and the reduction of exacerbation result was “about 15%”. Further, the “effect on lung inflammation and emphysema” value in series [2] was “inhibits lung inflammation and emphysema”.
